Test results from PubChem BioAssay (NCI).
Several values for one entry are separate records, joined by “and”; a condition that tells them apart may be missing. Equal entries are not always repeated.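 Cultured in 96-well plates, cells were exposed to test compound for 48 hours across five concentrations. Here, GI50 denotes the concentration required for 50% inhibition of growth. TGI marks complete inhibition of growth.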

Columns and labels:
Assay in all cases: NCI anticancer screen, dose series, 48 h
ACHN renal = test system: ACHN renal
CCRF-CEM leukemia = test system: CCRF-CEM leukemia
HL-60(TB) leukemia = test system: HL-60(TB) leukemia
HOP-92 NSCLC = test system: HOP-92 NSCLC
M14 melanoma = test system: M14 melanoma
OVCAR-3 ovarian = test system: OVCAR-3 ovarian
SK-MEL-28 melanoma = test system: SK-MEL-28 melanoma
T-47D breast = test system: T-47D breast
UACC-62 melanoma = test system: UACC-62 melanoma
UO-31 renal = test system: UO-31 renal

| SMILES | GI50 (ACHN renal) | TGI (ACHN renal) [µM] | GI50 (CCRF-CEM leukemia) | TGI (CCRF-CEM leukemia) [µM] | GI50 (HL-60(TB) leukemia) | TGI (HL-60(TB) leukemia) [µM] | GI50 (HOP-92 NSCLC) | TGI (HOP-92 NSCLC) [µM] | GI50 (M14 melanoma) [µM] | TGI (M14 melanoma) [µM] | GI50 (OVCAR-3 ovarian) | TGI (OVCAR-3 ovarian) [µM] | GI50 (SK-MEL-28 melanoma) | TGI (SK-MEL-28 melanoma) [µM] | GI50 (T-47D breast) | TGI (T-47D breast) [µM] | GI50 (UACC-62 melanoma) | TGI (UACC-62 melanoma) [µM] | GI50 (UO-31 renal) | TGI (UO-31 renal) |
| --- | --- | --- | --- | --- | --- | --- | --- | --- | --- | --- | --- | --- | --- | --- | --- | --- | --- | --- | --- | --- |
| COc1ccccc1NC(=O)c1cc2cc(Br)ccc2cc1O | 2.52 µM | 7.21 | 2.62 µM | 9.5 | 2.14 µM | > 22.1 | 1.34 µM | 4.78 | 3.01 | 11.9 | 2.48 µM | 9.06 | 4.46 µM | 14.4 | 2 µM | 10.7 | 1.7 µM | 8.23 | 1.57 µM | 7.85 µM |
| O=C(O)C(Cl)Cl | 5700 µM and > 10000 µM | > 10000 | 4920 µM and > 4680 µM | > 10000 | 7270 µM and > 7660 µM | > 10000 | 3630 µM and > 10000 µM | > 10000 | > 10000 | > 10000 | 4710 µM and > 10000 µM | > 10000 | 3150 µM and > 10000 µM | > 10000 | 4100 µM and > 10000 µM | > 10000 | 6710 µM and > 10000 µM | > 10000 | 2090 µM and > 6870 µM | 5010 µM and > 9340 µM |
| O=C1c2c(F)c(F)c(F)c(F)c2C(=O)N1c1ccc(F)cc1F | 10.1 µM | 23 | 0.958 µM | 6.82 | 0.403 µM | 0.891 | 13.8 µM | 31.9 | 13.4 | 33.6 | 9.17 µM | 27.5 | 13.4 µM | > 72.4 | 19.7 µM | 46.8 | 4.11 µM | 14.3 | 10.5 µM | > 48 µM |
| C/C=C/[C@@H]1O[C@@H]2COC(=O)C2=C[C@@H]1O | 3.58 µM | 13.4 | 2.94 µM | > 100 | 10.6 µM | > 100 | 0.747 µM | 9.35 | 13.7 | 35.3 | 4.19 µM | 22.2 | 15.3 µM | 32.9 | 6.31 µM | 24.2 | 17.5 µM | 34.6 | 4.21 µM | > 51.6 µM |
| Br[Se]c1ccccn1 |  | 29.9 |  | > 100 |  | 40.3 |  | 33 |  | 31.7 |  | 28.9 |  | 37.5 |  | 54.1 |  | 30.9 |  | 31.2 µM |
| CC(=O)Nc1cc2ccc(=O)oc2cc1Cl |  | > 100 |  | > 100 |  | > 100 |  | > 100 |  | > 100 |  | > 100 |  | > 100 |  | > 100 |  | > 100 |  | > 100 µM |
| C=C(C)C12OC1[C@@]1(C)C(=CC2=O)CCC(O)[C@@H]1C (stereo not given in full) |  | 2.42 |  | 8.82 |  | 4.26 |  | 93.9 |  | 18.1 |  | > 100 |  | > 100 |  | 78.4 |  | 75.4 |  | 41.9 µM |
| O=C1CSC(=S)N1/N=C/c1ccc(Cl)c([N+](=O)[O-])c1 |  | 45.6 |  | > 100 |  | 61 |  | 67.7 |  | 40.6 |  | 42.5 |  | 62.1 |  | 59.3 |  | 64.8 |  | 71 µM |
| COCCn1cc(-c2nc(-c3cc4cccnc4[nH]3)cs2)c2cc(OC)ccc21 | 2.61 µM | > 100 | 4.54 µM | > 100 | 2.95 µM | 13.3 | 0.387 µM | 2.46 | 4.8 | > 100 | 4.28 µM | 21.7 | 5.21 µM | > 100 | 0.033 µM | 0.992 | 4.22 µM | 31.3 | 1.84 µM | 11 µM |
| Cc1cc2c(cc1C)[n+](=O)c(C(=O)c1ccccc1)c(C(F)F)n2[O-] | 18 µM | > 100 | 5.12 µM | 29.6 | 3.3 µM | 18.9 | 37.7 µM | > 100 | 16.9 | > 100 | 18.4 µM | > 100 | 17.8 µM | > 100 | 30.3 µM | > 100 | 18.4 µM | 96.9 | 19.2 µM | > 100 µM |
| CC(C)(C)[Si](C)(C)OC1[C@@H](O[Si](C)(C)C(C)(C)C)[C@@H](CNC(=O)NC(=O)C(F)(F)F)O[C@H]1n1cnc2c(NC(=O)Nc3ccccc3)ncnc21 (stereo not given in full) | 5.54 µM | 11.5 | 7.31 µM | 41.6 | 9.3 µM | 26.4 | 5.2 µM | 11.8 | 5.72 | 13.2 | 7.63 µM | 14.5 | 8.04 µM | 15.2 | 5.64 µM | 11.8 | 7.45 µM | 15.9 | 7.68 µM | 15.6 µM |
| CC(C)[C@@H]1NC(=O)[C@]2(C)CSC(=N2)c2ccnc(c2)CNC(=O)C[C@@H](/C=C/CCS)OC1=O | 2.46 µM | 14.9 | 0.574 µM | > 100 | 0.513 µM | > 100 | 0.363 µM | 2.81 | 0.0957 | > 100 | 0.833 µM | 6.87 | 0.119 µM | 3.46 | 1.73 µM | 6.91 | 0.0746 µM | 0.552 | 1.56 µM | 23.1 µM |
| O=C1c2ccccc2C(=O)c2c(/C=C\N3CCCCC3)ccnc21 |  | 21.1 |  | 47.6 |  | 27.8 |  | 32.1 |  | 1.26 |  | 9.53 |  | 2.96 |  | > 44 |  | 1.58 |  | 23.4 µM |
| CCOc1ccc(NC2=CC(=O)C(=O)c3ccccc32)cc1 |  | 5.74 |  | 56.8 |  | 4.13 |  | 30.7 |  | 3.27 |  | 8.21 |  | 7.22 |  | 27.9 |  | 3.2 |  | 13.5 µM |
| C=C1C[C@H](O)[C@H](Br)C(C)(C)[C@@]12CCC(C)=C(Cl)C2 | 0.369 µM | 10.7 | 0.445 µM | 7.92 | 0.206 µM | 0.761 | 0.208 µM | 0.802 | 0.314 | 1.66 | 0.509 µM | 4.13 | 0.458 µM | 2.78 | 0.15 µM | 11.3 | 0.675 µM | 3.15 | 0.612 µM | 3.25 µM |
| CC(=O)N[C@@H](Cc1ccc(OP(=O)(O)O)cc1)C(=O)N[C@H]1CCC(=O)N2CCC[C@@H](C(=O)Nc3cccc4ccccc34)N2C1=O | > 25 µM | > 25 | > 25 µM | > 25 | > 25 µM | > 25 | > 23.9 µM | > 25 | > 25 | > 25 | > 25 µM | > 25 | > 25 µM | > 25 | > 25 µM | > 25 | > 25 µM | > 25 | > 21.4 µM | > 25 µM |
| NC(=S)N/N=C1\c2cc(Cl)ccc2-c2c1cc(Cl)cc2[N+](=O)[O-] | 4.81 µM | > 100 | 3.43 µM | > 100 | 6.15 µM | 51.9 | 2.22 µM | 13.1 | 3.27 | > 100 | 4.66 µM | 40.8 | 3.83 µM | > 100 | 2.07 µM | 7.65 | 3.16 µM | > 100 | 4.81 µM | 70.2 µM |
